pIC50: −log10 of the molar value.
Tests used:
recombinant human PDE4B = molecular target: T1, recombinant human PDE4B (Homo sapiens, UniProt Q07343); experiment: In vitro inhibitory activity against PDE 4B enzyme (fluorescence polarization); format: biochemical; conditions: 1 μM cAMP substrate
T1 construct: amino acid 305-end; GST (N); host or cells: Sf9 insect cells (baculovirus)

[1] = Pharmacokinetic study in beagle dogs; format: in vivo
Protocol: Experimental Example 5: Pharmacokinetic study in beagle dogs In this study, male beagle dogs were selected as test animals, and LC-MS/MS was used for quantitatively measuring the drug concentration in plasma of beagle dogs at different time points after intravenous injection or intragastric administration of the compound of formula (I) so as to evaluate the pharmacokinetics of the compound of formula (I) in beagle dogs.
The clear solution of the compound of formula (I) was injected into two beagle dogs of 10-12 kg via the cephalic vein or saphenous vein, and the clear solution of the compound of formula (I) was administered intragastrically to two beagle dogs of 10-12 kg (overnight fasted). The animals were all subjected to approximately […] blood collection each time from peripheral veins at 0.0333, 0.0833, 0.25, 0.5, 1, 2, 4, 6, 8 and 24 h post-dose, and the blood was transferred into commercial centrifuge tubes containing 0.85-1.15 mg of K2 EDTA.2H20 anticoagulant, and plasma was separated by centrifugation at 3000 g for 10 min at 4° C. The plasma concentration was measured by LC-MS/MS, and the relevant pharmacokinetic parameters were calculated using WinNonlinTM Version 6.3 (Pharsight, Mountain View, Calif.), a pharmacokinetic software, with a non-compartmental model linear-log trapezoidal method.

CYP2C9 = molecular target: T2, CYP2C9 (Homo sapiens, UniProt P11712); experiment: Inhibition of human liver microsomal CYP2C9 (diclofenac probe); format: in vitro ADME; conditions: human liver microsomes
T2 construct: co-incubated with human liver microsomes; from tissue; host or cells: human liver microsomes
Protocol: (§1) Experimental Example 6: Inhibitory effect on activity of isoenzymes (CYP1A2, CYP2C9, CYP2C19, CYP2D6 and CYP3A4) of human liver microsomal cytochrome P450 A total of 5 specific probe substrates of 5 isoenzymes of CYP, namely phenacetin (CYP1A2), diclofenac (CYP2C9), (S)-mephenytoin (CYP2C19), dextromethorphan (CYP2D6) and midazolam (CYP3A4) were each co-incubated with human liver microsomes and the compound of formula (I), and then reduced nicotinamide adenine dinucleotide phosphate (NADPH) was added to initiate the reaction. After the reaction was completed, the samples were treated, and the concentrations of 5 metabolites (acetaminophen, 4′-hydroxydiclofenac, 4′-hydroxymephenytoin, dextrorphan and l′-hydroxymidazolam) generated from the specific substrates were quantitatively detected by lC-MS/MS to calculate the correcnondino- half maximal inhibitory concentrationc (IC50)

CYP2C19 = molecular target: T3, CYP2C19 (Homo sapiens, UniProt P33261); experiment: Inhibition of human liver microsomal CYP2C19 ((S)-mephenytoin probe); format: in vitro ADME; conditions: human liver microsomes
T3 construct: co-incubated with human liver microsomes; from tissue; host or cells: human liver microsomes
Protocol: as §1

CYP3A4 = molecular target: T4, CYP3A4 (Homo sapiens, UniProt P08684); experiment: Inhibition of human liver microsomal CYP3A4 (midazolam probe); format: in vitro ADME; conditions: human liver microsomes
T4 construct: co-incubated with human liver microsomes; from tissue; host or cells: human liver microsomes
Protocol: as §1

[2] = system: cigarette smoke-induced rat acute lung injury model; experiment: Pharmacodynamic study in cigarette smoke-induced rat acute lung injury model; format: in vivo, Sprague-Dawley rats; conditions: rats, atomized 0.05 or 0.15 mg/mL for 30 min daily
Protocol: Experimental Example 7: Pharmacodynamic study in cigarette smoke-induced rat acute lung injury model
Male Sprague-Dawley rats (supplied by Shanghai SLAC Laboratory Animal Co., Ltd.), SPF grade, approximately 200 g.
Procedures • 1. Animals were randomly divided into 6 groups according to body weight after arrival and a one-week acclimation; • 2. On days 1-3 of the experiment, the corresponding compound of each group was atomized for 30 min. Then the animals in the model group and the treatment groups were exposed to cigarette smoke for 1 h, and after a 4-h interval, the animals were exposed to cigarette smoke again for 1 h. Cigarette smoke was given twice daily for 3 consecutive days. The control group animals were exposed to room air; • 3. On day 4 of the experiment, the corresponding compound of each group was atomized for 30 min, and then the animals in the model group and the treatment groups were given the atomized 150 μg/mL LPS for 15 min by inhalation. After 3 h (from the time starting atomization), the animals were exposed to cigarette smoke for 1 h, and then the lung function (Penh and F) of the animals was examined; bronchoalveolar lavage fluid (BALF) was collected for cell counting after the animals were euthanized with CO2. • 4. […]

[3] = system: TNF-α in human peripheral blood mononuclear cells; experiment: Inhibitory activity against TNF-α in LPS-stimulated hPBMCs (ELISA); format: cell-based; conditions: PBMC, 1 ng/mL LPS, 24 h, read-out: hPBMC IC50 (TNF-α)
From the text: Experimental Example 8: In vitro detection of the inhibitory activity of the compound against TNF-α in human peripheral blood mononuclear cells Objective: to measure the anti-inflammatory activity at cellular level of the test compound based on the level of TNF-α in human peripheral blood mononuclear cells (hPBMCs).
Procedures: • 1. Normal human whole blood was collected into an EDTA anticoagulation tube; • 2. The PBMC was separated by Ficoll density gradient centrifugation and counted, and the cell concentration was adjusted to 2×10^6 cells/mL; • 3. To each well of a U-bottom 96-well plate were added 2×10^5 cells, 1 ng/mL LPS, and solutions of the compound of formula (I) in DMSO at concentrations of […], 1 μM, 100 nM, 10 nM, 1 nM, 100 pM and 10 pM, with a system volume of 200 μL per well; • 4. The mixture was incubated for 24 h, and then the supernatant was collected; • 5. The level of TNF-α in the supernatant was detected by ELISA, an inhibition curve was fitted using Graphpad Prism software, and the IC50 was calculated.

[4] = intragastric administration 3 mg/kg

T1 sequence (Q07343 305-736 limits assumed): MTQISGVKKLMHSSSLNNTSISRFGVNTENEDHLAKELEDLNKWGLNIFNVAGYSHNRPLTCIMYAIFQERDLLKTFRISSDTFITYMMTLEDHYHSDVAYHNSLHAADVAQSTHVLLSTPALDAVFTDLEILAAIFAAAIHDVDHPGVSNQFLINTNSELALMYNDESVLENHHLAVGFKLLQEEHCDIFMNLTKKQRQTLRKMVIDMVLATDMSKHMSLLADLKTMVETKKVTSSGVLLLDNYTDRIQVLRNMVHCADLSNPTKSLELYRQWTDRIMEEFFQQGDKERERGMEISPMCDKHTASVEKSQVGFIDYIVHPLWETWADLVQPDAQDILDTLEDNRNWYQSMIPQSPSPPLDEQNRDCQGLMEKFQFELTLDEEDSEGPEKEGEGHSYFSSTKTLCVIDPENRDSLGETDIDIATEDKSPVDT
T4 sequence (P08684 whole entry): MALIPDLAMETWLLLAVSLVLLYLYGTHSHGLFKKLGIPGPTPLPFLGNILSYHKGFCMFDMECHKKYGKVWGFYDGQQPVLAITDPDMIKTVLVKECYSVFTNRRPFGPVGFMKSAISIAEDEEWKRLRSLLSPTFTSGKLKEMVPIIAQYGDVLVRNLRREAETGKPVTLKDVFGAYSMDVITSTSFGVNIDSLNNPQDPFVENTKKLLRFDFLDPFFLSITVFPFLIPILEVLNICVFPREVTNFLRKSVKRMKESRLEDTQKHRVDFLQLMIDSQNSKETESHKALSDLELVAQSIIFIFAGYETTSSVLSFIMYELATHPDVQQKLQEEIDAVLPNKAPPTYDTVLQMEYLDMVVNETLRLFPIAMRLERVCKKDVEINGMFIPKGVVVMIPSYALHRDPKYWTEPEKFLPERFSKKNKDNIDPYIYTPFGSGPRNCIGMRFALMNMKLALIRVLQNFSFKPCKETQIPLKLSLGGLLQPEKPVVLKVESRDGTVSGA
T3 sequence (P33261 whole entry): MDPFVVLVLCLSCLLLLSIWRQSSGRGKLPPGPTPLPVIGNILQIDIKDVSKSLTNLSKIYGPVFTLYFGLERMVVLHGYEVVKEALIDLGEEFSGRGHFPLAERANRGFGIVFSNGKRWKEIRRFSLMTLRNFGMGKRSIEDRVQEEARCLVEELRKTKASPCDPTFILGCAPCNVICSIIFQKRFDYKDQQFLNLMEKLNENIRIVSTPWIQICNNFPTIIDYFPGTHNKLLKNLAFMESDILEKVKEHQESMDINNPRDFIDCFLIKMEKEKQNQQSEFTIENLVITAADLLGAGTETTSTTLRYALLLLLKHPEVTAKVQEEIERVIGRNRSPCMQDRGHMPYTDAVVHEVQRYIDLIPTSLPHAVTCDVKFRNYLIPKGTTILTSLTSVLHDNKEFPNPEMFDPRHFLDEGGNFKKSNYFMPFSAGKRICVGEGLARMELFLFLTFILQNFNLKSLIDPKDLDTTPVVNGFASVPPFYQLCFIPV
T2 sequence (P11712 whole entry): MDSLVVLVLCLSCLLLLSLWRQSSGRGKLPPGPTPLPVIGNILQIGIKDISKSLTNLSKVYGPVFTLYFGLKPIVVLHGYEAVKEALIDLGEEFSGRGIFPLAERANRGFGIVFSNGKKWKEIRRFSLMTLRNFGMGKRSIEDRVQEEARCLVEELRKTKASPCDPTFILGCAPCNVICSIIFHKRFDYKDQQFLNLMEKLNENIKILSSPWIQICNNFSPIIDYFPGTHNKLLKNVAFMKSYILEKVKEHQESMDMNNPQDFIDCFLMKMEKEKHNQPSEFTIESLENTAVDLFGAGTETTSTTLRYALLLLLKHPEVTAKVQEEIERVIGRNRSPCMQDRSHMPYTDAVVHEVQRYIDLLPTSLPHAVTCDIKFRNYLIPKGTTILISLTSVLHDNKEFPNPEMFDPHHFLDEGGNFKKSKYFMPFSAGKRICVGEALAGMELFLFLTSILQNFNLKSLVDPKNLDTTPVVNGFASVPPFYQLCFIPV

- pIC50 (recombinant human PDE4B): 9.39
- Area under plasma concentration-time curve (0-inf) [1, 4]: 0.123 µM·h
- Peak concentration [1, 4]: 59.4 nM
- Time to peak [1, 4]: 0.6 h
- Area under plasma concentration-time curve (0-inf) ([1]; intravenous injection 0.5 mg/kg): 0.21 µM·h
- pIC50 (CYP2C9): 4.51
- pIC50 (CYP2C19): ≤ 4.30
- pIC50 (CYP3A4): ≤ 4.30
- pIC50 [3]: 7.53
Structure (SMILES): CCOc1cc2c(cc1OC)-c1c/c(=N\c3c(C)cc(C)cc3C)n(CCNC(=O)c3c(O)nnn3C)c(=O)n1CC2 [Compound of formula (I)]
- Number of white blood cells in the bronchoalveolar lavage fluid ([2]; FIG. 5): effectively reduce
- Airway resistance index Penh (Mch challenge pulmonary function test) ([2]; FIG. 6): effectively reduce

— patent US20230060174A1, “PHARMACEUTICAL COMPOSITION OF TRICYCLIC PDE3/PDE4 DUAL INHIBITOR COMPOUND” (CHIA TAI TIANQING PHARMACEUTICAL GROUP CO., LTD., priority 2020, published 2023)
